Results published in patent publication US12559553B2, “IL-31 modulators for treating FXR-induced pruritus” (Gilead Sciences, Inc., priority 2021, dated 2026).
“And” between values parts separate entries of the source, which are not always exact repeats. Identical values can stand only once. “Also recorded” adds a separate entry of the source.

Experiments:
[1] = tested on: IL-31; test: Serum IL-31 in serially collected samples (intensive sampling), CILO NASH study; format: in vivo, human; conditions: NASH patients, CILO 100 mg
Method: A similar intensive sampling study was also performed in the CILO NASH study. IL-31 levels in the serially collected samples were compared in NASH patients and HVs with CILO 100 mg. In HVs with CILO 100 mg, serum IL-31 achieved the peak concentration of 0.22 pg/mL and 2.6 fold increase from pre-dose (data not shown). NASH patients with the same dose had more increased serum IL-31 than HV. […] Activation of FXR in the intestinal epithelial cells induces FGF-19 secretion. FGF-19 suppressed CYP7A1 expression, which is a key enzyme to […] 7α-hydroxycholesterol. 7α-hydroxycholesterol is metabolized into 7α-hydroxy-4-cholesten-3-one (C4). The increased FGF-19 and reduced C4 levels in circulation are target engagement assessments for FXR agonists.

[2] = tested on: IL-31; test: Serum IL-31 (SIMOA assay), Phase 2 study of cilofexor in non-cirrhotic NASH patients; format: in vivo, human; conditions: for Serum IL-31, median (IQR) / Increase of IL-31 in patients with grade 2 or 3 pruritus versus the others: NASH
Method: (§1) Serum IL-31 (SIMOA©assay; Myriad, Austin, TX) was measured in a Phase 2 study of cilofexor (CILO, a non-steroidal FXR agonist) in non-cirrhotic NASH (n=140) patients. Patients were randomized 2:2:1 to CILO 100 mg, 30 mg, or placebo daily. Associations between serum IL-31 and pruritus-related adverse events and patient-reported outcomes (Visual Analog Scale [VAS] and 5-D Itch) were determined.

[3] = tested on: IL-31; test: Serum IL-31 pre-dose and post-dose, CILO phase 1 study in healthy volunteers; format: in vivo, human
Method: In the CILO phase 1 study, serum IL-31 levels were assessed in pre-dose and post-dose (from 1 to 8 hr) samples from the healthy volunteers (HVs) with placebo or CILO 30 mg, 100 mg or 300 mg. The HVs with CILO 100 mg or 300 mg had elevated serum IL-31 levels with peak concentration at 4-6 hr post-dose samples (data not shown). A similar intensive sampling study was also performed in the CILO NASH study. IL-31 levels in the serially collected samples were compared in NASH patients and HVs with CILO 100 mg. In HVs with CILO 100 mg, serum IL-31 achieved the peak concentration of 0.22 pg/mL and 2.6 fold increase from pre-dose (data not shown). NASH patients with the same dose had more increased serum IL-31 than HV.

[4] = tested on: FGF-19; test: FGF-19 target engagement in healthy volunteers; format: in vivo, human; conditions: CILO 100 mg, 4 hr post-dose
Source text: (§2) Activation of FXR in the intestinal epithelial cells induces FGF-19 secretion. FGF-19 suppressed CYP7A1 expression, which is a key enzyme to […] 7α-hydroxycholesterol. 7α-hydroxycholesterol is metabolized into 7α-hydroxy-4-cholesten-3-one (C4). The increased FGF-19 and reduced C4 levels in circulation are target engagement assessments for FXR agonists.

[5] = tested on: IL-31; test: Serum IL-31 (SIMOA assay), Phase 2 study of cilofexor in PSC patients; format: in vivo, human
Method: as §1, with “IL-31 (SIMOA® assay;” for “IL-31 (SIMOA©assay;”, “in two” for “in a”, “2 studies” for “2 study”, “in PSC (n=52) and PBC (n=71). In all studies, patients” for “in non-cirrhotic NASH (n=140) patients. Patients”

[6] = tested on: 7α-hydroxy-4-cholesten-3-one (C4); test: C4 levels in circulation, CILO NASH study; format: in vivo, human
Source text: as §2

[7] = Pruritus adverse events, Phase 2 study of cilofexor in PSC patients; format: in vivo, human
Method: as §1, with “IL-31 (SIMOA® assay;” for “IL-31 (SIMOA©assay;”, “in two” for “in a”, “2 studies” for “2 study”, “in PSC (n=52) and PBC (n=71). In all studies, patients” for “in non-cirrhotic NASH (n=140) patients. Patients”

[8] = tested on: IL-31; test: Serum IL-31 (SIMOA assay), Phase 2 study of cilofexor in PBC patients; format: in vivo, human
Method: Serum IL-31 (SIMOA® assay; Myriad, Austin, TX) was measured in two Phase 2 studies of cilofexor (CILO, a non-steroidal FXR agonist) in PSC (n=52) and PBC (n=71). In all studies, patients were randomized 2:2:1 to CILO 100 mg, 30 mg, or placebo daily. Associations between serum IL-31 and pruritus-related adverse events and patient-reported outcomes (Visual Analog Scale [VAS] and 5-D Itch) were determined. In PBC, IL-31 correlated to VAS (ρ=0.42, p<0.001) and 5-D Itch (ρ=0.58, p<0.001) (Table 6).

[9] = Cholestasis (ALP and BA levels) in PSC and PBC patients; format: in vivo, human
[10] = tested on: FGF-19; test: FGF-19 target engagement in NASH patients; format: in vivo, human
Source text: as §2

[11] = tested on: IL-4; test: Serum IL-4 and other inflammatory markers in the CILO NASH study; format: in vivo, human; conditions: NASH patients
Method: IL-31 is expressed and secreted by activated T helper 2 (Th2) cell. IL-4, a type II immune cytokine, was associated with activation of Th2 cells and serum IL-31 levels in patients with atopic dermatitis. Serum IL-4 levels were assessed in the CILO NASH and PSC studies.

[12] = tested on: human IL-31; test: IL-31 in chimeric PXB mice with human hepatocytes treated with OCA; format: in vivo; conditions: OCA 10 mg/kg QD for 18 days
[13] = PBC, serially collected blood samples, 100 mg CILO, 5 hr post-dose
[14] = serially collected blood samples, 100 mg CILO, 6 hr post-dose

O=C(O)c1ccnc(N2CC(O)(c3ccc(OCc4c(-c5c(Cl)cccc5Cl)noc4C4CC4)cc3Cl)C2)c1 [CILO, cilofexor]
Serum IL-31 peak concentration ([1]; 4-6 hr post-dose): 13 pg/mL and 12 to 13 pg/mL | Serum IL-31 increase from pre-dose ([1]; at peak): 23.6 fold and 21.8-23.6 fold | Effect on serum IL-31 ([2]; NASH patients, week 1 to week 24, 30 mg and 100 mg): increased serum IL-31 in a dose-dependent manner | Serum IL-31, median (IQR) ([2]; CILO 30 mg, Baseline): 0.09 pg/mL | Serum IL-31, median (IQR) ([2]; CILO 30 mg, Week 1): 0.15 pg/mL | Serum IL-31, median (IQR) ([2]; CILO 30 mg, Week 4): 0.105 pg/mL | Serum IL-31, median (IQR) ([2]; CILO 30 mg, Week 8): 0.14 pg/mL | Serum IL-31, median (IQR) ([2]; CILO 30 mg, Week 12): 0.145 pg/mL | Serum IL-31, median (IQR) ([2]; CILO 30 mg, Week 24): 0.15 (0.062, 0.27) pg/mL and 0.15 pg/mL | Serum IL-31, median (IQR) ([2]; CILO 100 mg, Baseline): 0.083 pg/mL | Serum IL-31, median (IQR) ([2]; CILO 100 mg, Week 1): 0.21 pg/mL | Serum IL-31, median (IQR) ([2]; CILO 100 mg, Week 4): 0.24 pg/mL | Serum IL-31, median (IQR) ([2]; CILO 100 mg, Week 8): 0.26 pg/mL | Serum IL-31, median (IQR) ([2]; CILO 100 mg, Week 12): 0.26 pg/mL | Serum IL-31, median (IQR) ([2]; CILO 100 mg, Week 24): 0.26 (0.13, 0.82) pg/mL and 0.26 pg/mL | Increase of IL-31 in patients with grade 2 or 3 pruritus versus the others ([2]; W1): 5.1 fold | Increase of IL-31 in patients with grade 2 or 3 pruritus versus the others ([2]; W4): 2.9 fold | Increase of IL-31 in patients with grade 2 or 3 pruritus versus the others ([2]; W8): 3.8 fold | Increase of IL-31 in patients with grade 2 or 3 pruritus versus the others ([2]; W12): 4.5 fold | Increase of IL-31 in patients with grade 2 or 3 pruritus versus the others ([2]; W24): 7 fold | Serum IL-31 peak concentration ([3]; CILO 100 mg): 0.22 pg/mL | Serum IL-31 levels post-dose ([3]; CILO 100 mg or 300 mg): elevated | Time of peak serum IL-31 concentration post-dose ([3]; CILO 100 mg or 300 mg): 4 to 6 h | Serum IL-31 increase from pre-dose ([3]; CILO 100 mg, at peak): 2.6 fold | FGF-19 peak concentration [4]: 591.6 pg/mL | Dose-dependent effect on serum IL-31 [5]: not observed | Effect on serum IL-31 levels ([5]; 12-week treatment): did not alter; also recorded: no effect | C4 levels compared to placebo ([6]; W24, CILO 30 mg): significantly declined | C4 levels compared to placebo ([6]; W24, CILO 100 mg): significantly declined | Effect on pruritus [7]: did not exacerbate pruritus | Any Grade pruritus, patients ([7]; CILO 30 mg): 5 | Grade 1 pruritus, patients ([7]; CILO 30 mg): 2 | Grade 2 pruritus, patients ([7]; CILO 30 mg): 1 | Grade 3 pruritus, patients ([7]; CILO 30 mg): 2 | Patients who reported grade 2 or 3 pruritus ([7]; CILO 30 mg): 3 subjects | Any Grade pruritus, patients ([7]; CILO 100 mg): 8 | Grade 1 pruritus, patients ([7]; CILO 100 mg): 5 | Grade 2 pruritus, patients ([7]; CILO 100 mg): 1 | Grade 3 pruritus, patients ([7]; CILO 100 mg): 2 | Patients who reported grade 2 or 3 pruritus ([7]; CILO 100 mg): 3 subjects | Dose-dependent effect on serum IL-31 ([8]; PBC patients): not observed | Effect on serum IL-31 levels ([8]; PBC patients, fasting samples at Weeks 1, 4 and 12, compared to placebo): did NOT change; also recorded: no effect; also recorded: did not alter | IL-31 increase from pre-dose [8, 13]: 2.5 fold | IL-31 level post-dose [8, 13]: 7.4 pg/mL | IL-31 median level at pre-dose ([8]; PBC, serially collected blood samples, 100 mg CILO, pre-dose): 3 pg/mL | Effect on cholestasis (ALP and BA levels) [9]: improved cholestasis | FGF-19 peak concentration ([10]; NASH patients, CILO 100 mg, 4 hr post-dose): 829.7 pg/mL | FGF-19 increase from pre-dose [10, 14]: 45.9 fold | FGF-19 peak concentration [10, 14]: around 1826 pg/mL | FGF-19 median at pre-dose ([10]; serially collected blood samples, 100 mg CILO, pre-dose): 39.8 pg/mL | Effect on other inflammatory markers (IL-4 and IL-18) [11]: without changing | Effect on serum IL-4 [11]: did not elevate

CC[C@H]1[C@@H](O)[C@@H]2[C@H](CC[C@]3(C)[C@@H]([C@H](C)CCC(=O)O)CC[C@@H]23)[C@@]2(C)CC[C@@H](O)C[C@@H]12 [OCA, obeticholic acid]
Hepatic IL-31 mRNA expression vs vehicle [12]: 7.8 fold
